These results are taken from paper PMC12040169 (PLOS Biology, 2025).

Each structure is given as a SMILES string.

A short description of this series: in vitro. The following applies: human, hela cells, % viability.

As for `CNC(=O)Nc1cc(C(O)(C(F)(F)F)C(F)(F)F)ccc1C` [CBK006970], the viability at 28.5 h, 10 µM was 113%.

On to `Cc1[nH]c2ccccc2c1C(=O)C(=O)Nc1ccc(C#N)cc1` [CBK269896], for which the viability at 28.5 h, 10 µM turned out to be 84.6%.

For the compound `O=C(c1ccco1)N1CCN(c2cncc(-c3cccs3)n2)CC1` [CBK065518], the viability at 28.5 h, 10 µM was 114%.

For `C=Cn1ncc(CN(Cc2ccc(C)o2)CC2CCCO2)c1C` (stereo not shown) [CBK283292], the viability at 28.5 h, 10 µM is 101%.

As to `CC(=O)c1ccc(C(=O)N(C)Cc2ccc(F)cc2)s1` [CBK296660], the viability at 28.5 h, 10 µM was 99.8%.

Take `CCOC(=O)C1CCN(S(=O)(=O)c2ccc(OC)c(C)c2C)CC1` [CBK268955]: the viability at 28.5 h, 10 µM worked out at 96.1%.

As for `CC1CCN(C(=O)CC(NC(N)=O)c2cccc(Br)c2)CC1` (stereo not shown) [CBK305788], the viability at 28.5 h, 10 µM amounted to 95.3%.

With `Cc1ccc(S(=O)(=O)N2CC[C@@H]3C[C@H](NC(=O)C4CC4C)[C@@H]32)cc1` (stereo partly shown) [CBK284968], the viability at 28.5 h, 10 µM is 90%.

Consider `CN1CCc2nc(SCC(=O)c3ccc(-c4ccccc4)cc3)c(C#N)c(-c3cccs3)c2C1` [CBK267447], for which the viability at 28.5 h, 10 µM is 88.3%.

Take `Cc1nc2c(c(=O)[nH]1)CC[C@@H]1CN(C(=O)c3occ4ccccc34)C[C@H]21` [CBK284408]: the viability at 28.5 h, 10 µM turned out to be 101%.

As for `Cc1nc(C)n(CC2CCCCN2Cc2cn3ccccc3c2C#N)n1` (stereo not shown) [CBK306102], the viability at 28.5 h, 10 µM was determined as 85.1%.

On to `CCN1C(=O)c2[nH]nc(-c3ccccc3O)c2C1c1cccc(O)c1` (stereo not shown) [CBK288159], for which the viability at 28.5 h, 10 µM was 95.9%.

Consider `CC(=O)Cn1cnc2c(cnn2-c2cccc(Cl)c2)c1=O` [CBK287692], for which the viability at 28.5 h, 10 µM worked out at 84.4%.

Regarding `CCCCc1c(O)nc(SCC(=O)NCC2CCCO2)[nH]c1=O` (stereo not shown) [CBK073281], the viability at 28.5 h, 10 µM worked out at 97.6%.

For the compound `O=c1c2c3nc4ccccc4nc3n(CCc3ccccc3)c2ncn1Cc1ccco1` [CBK269502], the viability at 28.5 h, 10 µM is 77.5%.

Consider `Cc1nc(NCc2ccc(C(F)(F)F)cc2)nc(N2CCOCC2)n1` [CBK023863], for which the viability at 28.5 h, 10 µM came to 91.9%.

On to `O=C(c1ccccc1F)N1CCCC(c2n[nH]c3ncccc23)C1` (stereo not shown) [CBK282672], for which the viability at 28.5 h, 10 µM was determined as 101%.

`COc1ccc(N2CCN(c3nc(NCCO)nc(N4CCOCC4)n3)CC2)cc1` [CBK265413]: the viability at 28.5 h, 10 µM was 99.3%.

On to `O=C(O)CCSc1nnnn1-c1ccccc1` [CBK287217], for which the viability at 28.5 h, 10 µM amounted to 88.4%.

Take `CCOC(=O)c1ccc(-c2ccc(C(=O)Nc3ccc(-c4nc5ccccc5o4)c(O)c3)o2)cc1` [CBK263428]: the viability at 28.5 h, 10 µM is 99%.

On to `Cc1cccc(NS(=O)(=O)c2cc(C(=O)NCc3ccccn3)ccc2C)c1` [CBK268767], for which the viability at 28.5 h, 10 µM turned out to be 70.7%.

Regarding `COc1ccc2[nH]cc(C(C(=O)O)N3CCCCC3)c2c1` (stereo not shown) [CBK286676], the viability at 28.5 h, 10 µM was 85.3%.

With `CC(=O)c1ccc(NC(=O)N[C@H]2CCN3C(=O)[C@@H](Cc4ccccc4)NC(=O)[C@H]23)cc1` [CBK289229], the viability at 28.5 h, 10 µM was 85.9%.

On to `O=C1NCCCC12CCN(Cc1cccc(F)c1F)CC2` [CBK284877], for which the viability at 28.5 h, 10 µM is 91.8%.

In the case of `CCCn1ccnc1CNc1nc(C)nc2c1c(C)nn2C` [CBK307459], the viability at 28.5 h, 10 µM is 85%.

In the case of `CCc1nc2ccc(C(=O)N(C)CCN(C)C)cn2c1N(CC)CCOC` [CBK146018], the viability at 28.5 h, 10 µM came to 94.2%.

For `CC(C)c1csc(C2CCN(C(=O)CCc3ccsc3)CC2)n1` [CBK305327], the viability at 28.5 h, 10 µM is 104%.

With `CC(=O)Nc1ccc(-c2ccc(=O)n3c2[C@@H]2C[C@@H](CN(C4CCOCC4)C2)C3)cc1` [CBK289201], the viability at 28.5 h, 10 µM was found to be 98%.

As for `CS(=O)(=O)c1ccc(Nc2cncc(N3CCC(Sc4ccccn4)CC3)c2C#N)cc1` [CBK131843], the viability at 28.5 h, 10 µM is 85.2%.

Turning to `CCOC(=O)c1cnc2c(C)c(Cl)ccc2c1NCCN(C)C` [CBK265965], the viability at 28.5 h, 10 µM amounted to 102%.

In the case of `CC1(C)CC(=O)C=C(NCC2CCNCC2)C1` [CBK027580], the viability at 28.5 h, 10 µM was 87.9%.

For `CONc1nc(/N=C/N(C)C)nc2c1ncn2C1CC(O)C(CO)O1` (stereo not shown) [CBK201335], the viability at 28.5 h, 10 µM was 92.7%.

Take `Cc1nc(CN2CCCC(NCc3ccc(C(N)=O)cc3)C2)no1` (stereo not shown) [CBK304962]: the viability at 28.5 h, 10 µM was 88.3%.

On to `FC(F)(F)c1nc2ccccc2nc1SC1CCCCC1` [CBK107205], for which the viability at 28.5 h, 10 µM is 97.2%.

In the case of `Cc1c(F)cccc1CN(CC(C)(C)CN)C(=O)Nc1ccc2c(c1)OCO2` [CBK002486C], the viability at 28.5 h, 10 µM was found to be 87.9%.

For `COc1c(C)cc(-c2ncnc(C)c2C)cc1C` [CBK306884], the viability at 28.5 h, 10 µM amounted to 67.6%.

`CSc1ccccc1C(=O)Nc1nccs1` [CBK288225]: the viability at 28.5 h, 10 µM amounted to 88.7%.

Regarding `Cn1c(=O)c2c(ncn2CC(=O)Nc2cccc(Br)c2)n(C)c1=O` [CBK133287], the viability at 28.5 h, 10 µM worked out at 90.7%.

Consider `Cn1c2ccc(Br)cc2c2nnc(SCC(=O)N3c4ccccc4Sc4ccccc43)nc21` [CBK263900], for which the viability at 28.5 h, 10 µM stood at 88.7%.

As to `COc1cccc(NC(=O)c2ccc(-c3cc(C(F)(F)F)cc(C(F)(F)F)c3)nc2N(C)C)c1` [CBK106028], the viability at 28.5 h, 10 µM came to 119%.

With `O=C(O)c1cccc(N2C(=O)C3C4C=CC(CO)(O4)C3C2=O)c1` (stereo not shown) [CBK287066], the viability at 28.5 h, 10 µM worked out at 103%.

Turning to `Nc1nc(C2CC(N)C2)cc(N2CCC(Oc3ccccc3F)CC2)n1` (stereo not shown) [CBK306909], the viability at 28.5 h, 10 µM was determined as 85.5%.

For `O=C(NCc1nc2ccccc2[nH]1)c1cc(-c2ccc(Cl)cc2)cnc1NCc1ccc2c(c1)OCO2` [CBK106377], the viability at 28.5 h, 10 µM was determined as 102%.

On to `Cc1nc(C)c(C(=O)C2=C(O)C(=O)N(CCCN3CCOCC3)C2c2ccncc2)s1` (stereo not shown) [CBK235187], for which the viability at 28.5 h, 10 µM amounted to 97.3%.

Consider `COc1ccc2[nH]c3c(c2c1)CCN(C(=O)CNCc1ccc(OC)c(OC)c1)C31CCN(CCOc2ccccc2)C1` (stereo not shown) [CBK076736T], for which the viability at 28.5 h, 10 µM was determined as 75%.

For `Cc1ccc(S(=O)(=O)N2CCC(N3CCN(CCO)CC3)CC2)cc1` [CBK264656G], the viability at 28.5 h, 10 µM came out at 96.8%.

For `CCCN1CCC(N2CCN(CCO)CC2)CC1` [CBK261920], the viability at 28.5 h, 10 µM is 79.9%.

For the compound `N#CC(CC(=O)O)C(Cc1ccccc1)c1ccccc1` (stereo not shown) [CBK286837], the viability at 28.5 h, 10 µM came out at 107%.

For the compound `O=C(Cc1ccccc1)N1CCC(c2nc3ccccc3s2)CC1` [CBK070145], the viability at 28.5 h, 10 µM was determined as 92.6%.

In the case of `COc1cc(/C=C2\SC(=S)N(c3cccc(C(=O)O)c3)C2=O)cc([N+](=O)[O-])c1O` [CBK265281], the viability at 28.5 h, 10 µM worked out at 96.2%.

Consider `Cc1cccc(-c2n[nH]c(=S)n2CC(=O)Nc2cccc(C#Cc3ccccn3)c2)c1` [CBK296633], for which the viability at 28.5 h, 10 µM came out at 92.8%.

`CC1=NN(c2nc(-c3cccc([N+](=O)[O-])c3)cs2)C(=O)C1/N=N/c1ccc(C)c(Br)c1` (stereo not shown) [CBK262430]: the viability at 28.5 h, 10 µM was 104%.

In the case of `Cc1ccc(-n2c(SCC(=O)N3CCC(C(=O)O)CC3)nc3ccccc3c2=O)cc1C` [CBK297540], the viability at 28.5 h, 10 µM was 81.4%.

`CCN1CCCC1CNC(=O)c1cc(Br)cnc1N1CCOCC1` (stereo not shown) [CBK076213]: the viability at 28.5 h, 10 µM was found to be 87.1%.

Take `OC(Cn1c(Cc2ccccc2)nc2ccccc21)Cn1c2ccc(Cl)cc2c2cc(Cl)ccc21` (stereo not shown) [CBK262546]: the viability at 28.5 h, 10 µM is 89.4%.

`COc1cc2cc3c(N)c(C(=O)N4CCCc5ccccc54)sc3nc2cc1OC` [CBK117298]: the viability at 28.5 h, 10 µM was found to be 102%.

In the case of `COc1cc([N+](=O)[O-])ccc1NC(=O)CS(=O)(=O)Cc1ccccc1` [CBK266704], the viability at 28.5 h, 10 µM stood at 105%.

Regarding `CC(C)S(=O)(=O)n1c(=O)n(CC(=O)c2csc3ccccc23)c2ccccc21` [CBK106559], the viability at 28.5 h, 10 µM stood at 99.8%.

On to `COc1ccc(C23CCCN(C)C2C[C@@H](O)CC3)cc1OC` (stereo partly shown) [CBK016226C], for which the viability at 28.5 h, 10 µM turned out to be 94.1%.

As to `Cc1nc(SCC(=O)O)nc(O)c1Oc1ccccc1` [CBK263621], the viability at 28.5 h, 10 µM worked out at 103%.

With `O=C(c1cccnc1)N1CCN(C(=O)c2ccco2)CC1` [CBK072684], the viability at 28.5 h, 10 µM came out at 94.3%.

Regarding `O=C(C[S+]([O-])c1ccc(C(F)(F)F)cc1[N+](=O)[O-])Oc1cccc2cccnc12` (stereo not shown) [CBK266716], the viability at 28.5 h, 10 µM was 91.6%.

In the case of `CCCCC(NC(=O)c1cc2ccccc2[nH]1)C(=O)O` (stereo not shown) [CBK286647], the viability at 28.5 h, 10 µM came out at 85.9%.

`O=C(CCN1Cc2ccccc2C1=O)NCCN1CCc2ccccc21` [CBK282632]: the viability at 28.5 h, 10 µM amounted to 97.5%.

In the case of `CC(C)CC1C(=O)NCCN1Cc1ccccc1` (stereo not shown) [CBK005336], the viability at 28.5 h, 10 µM worked out at 92%.

Take `CCCC/C=C/c1cnc(N)c(N2CCOCC2)n1` [CBK063398]: the viability at 28.5 h, 10 µM was 98.1%.

Consider `COc1ccc(CCOc2cnc(-c3ccccc3)c(N)n2)cc1` [CBK145065], for which the viability at 28.5 h, 10 µM turned out to be 98.8%.

As to `CN(c1ncccc1CNC(=O)c1cccnc1)C1CCCCC1` [CBK306555], the viability at 28.5 h, 10 µM was determined as 103%.

For `Cn1nc2c(c1O)CCCC2` [CBK089897], the viability at 28.5 h, 10 µM turned out to be 102%.

In the case of `CCc1ccc(-c2ccc(C(=O)OC)cn2)cc1` [CBK149232], the viability at 28.5 h, 10 µM was determined as 95.2%.

For the compound `COc1cc(C)c(NC(=O)C(=S)NCc2ccco2)cc1C` [CBK268582], the viability at 28.5 h, 10 µM was 103%.

On to `O=C(CN1CCN(Cc2ccccc2)CC1)Nc1ccccc1Oc1ccccc1` [CBK074782], for which the viability at 28.5 h, 10 µM turned out to be 90.2%.

For `OCc1ccc(-n2ncc(-c3ccc(F)cc3F)n2)cc1` [CBK112731], the viability at 28.5 h, 10 µM was 97.3%.

As to `CC(C)(C)NCC(O)COc1c(F)cc(Br)cc1F` (stereo not shown) [CBK020879C], the viability at 28.5 h, 10 µM was 107%.

On to `Cc1ccc(OCC(O)CN2CCN(c3nc(-c4ccccc4)ns3)CC2)c([N+](=O)[O-])c1` (stereo not shown) [CBK074696], for which the viability at 28.5 h, 10 µM came out at 95.3%.

With `Cc1ccc(C(=O)C(NC(=O)c2ccco2)Nc2cccc3ccccc23)cc1` (stereo not shown) [CBK263856], the viability at 28.5 h, 10 µM turned out to be 86.3%.

In the case of `CC(=O)Nc1ccc(-c2ccc(C(=O)NCc3cccnc3)cn2)cc1` [CBK158842], the viability at 28.5 h, 10 µM turned out to be 96.9%.

Consider `CCOc1ccccc1-n1c(CN2CCN(C(=O)c3ccco3)CC2)nc2ccccc2c1=O` [CBK267203], for which the viability at 28.5 h, 10 µM came to 86.4%.

Consider `COc1cc(/C=C2\C(=O)N(c3ccc(NC(C)=O)cc3)N=C2c2ccccc2)ccc1O` [CBK265664], for which the viability at 28.5 h, 10 µM is 87.5%.
